The source of these data is patent US11965039B2, “Compstatin analogues and their medical uses” (priority 2018, dated 2024).

The nature of data set [1]: Solubility test at 10 mg/mL (visual inspection and light scattering). The class given is physicochemical. The conditions noted are these: for Solubility, Condition 1: Acetate pH 4; for Solubility, Condition 2: Acetate pH 5; for Solubility, Condition 3: Phosphate pH 6; for Solubility, Condition 4: Phosphate pH 7; for Solubility, Condition 5: Phosphate pH 7.5.
The subject of data set [2] is classical complement pathway. Nature of the data set: In vitro haemolysis assay (inhibition of classical complement pathway). The class given is cell-based, human. Conditions: human serum, sensitized sheep red blood cells. The method in brief: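 Compound dilutions preincubated 15 min at room temperature with diluted human serum (titrated per batch for 70-90% maximal haemolysis), then antibody-sensitized sheep RBC (10^7/well) added for 30 min at 37 °C in Tris/casein buffer, pH 7.4. Stopped with EDTA; haemolysis read at 405 nm; IC50 by 4PL fit.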

Where [3] appears, read: Table 3, given as upper bounds, read-out: IC50, inhibition of hemolysis.

Each structure is given as a SMILES string. Read-outs that look alike come from different tables or passages of the source. Positions of bridges follow the written chain, without caps; N, C: chain ends. Non-standard residues stand in square brackets, D forms with d. Residues, ends and D or L forms follow the SMILES beside them. Trp(1-Me) = Cn1cc(C[C@H](N)C(=O)O)c2ccccc21; 1Nal = N[C@@H](Cc1cccc2ccccc12)C(=O)O; 2Nal = N[C@@H](Cc1ccc2ccccc2c1)C(=O)O; Sar = CNCC(=O)O

The IC50 is the concentration that gives 50% inhibition. Consider `CC[C@H](C)[C@@H]1NC(=O)[C@@H](NC(=O)[C@H](Cc2ccccc2)NC(=O)[C@H](C)NC(=O)[C@H](CO)NC(=O)CNC(=O)[C@H](CCC(=O)O)NC(C)=O)CSSC[C@@H](C(=O)N[C@H](C(=O)N[C@@H](CCC(=O)O)C(N)=O)[C@@H](C)O)NC(=O)[C@H](CCCNC(=N)N)NC(=O)[C@H](Cc2c[nH]cn2)NC(=O)[C@H](CCC(=O)O)NC(=O)CNC(=O)[C@H](Cc2c[nH]c3ccccc23)NC(=O)[C@H](CC(=O)O)NC(=O)[C@H](CCC(N)=O)NC(=O)[C@H](Cc2cccc3ccccc23)NC1=O` [Compound 56] (Ac-EGSAFCI[1Nal]QDWGEHRCTE-NH2; disulfide 6-16), for which, in data set [1], the “Solubility, Condition 1” value is on record as “− (“−” denotes lack of solubility at the given condition, as UV absorbance at 340 nm exceeds 0.1 AU and/or it is visibly turbid or contains particles)”; the “Solubility, Condition 2” value was “− (“−” denotes lack of solubility at the given condition, as UV absorbance at 340 nm exceeds 0.1 AU and/or it is visibly turbid or contains particles)”; the “Solubility, Condition 3” value was “+ (“+” denotes solubility at the given condition, as determined by UV absorbance being less than 0.1 AU at 340 nm and the sample being clear when manually inspected)”; the “Solubility, Condition 4” value is “+ (“+” denotes solubility at the given condition, as determined by UV absorbance being less than 0.1 AU at 340 nm and the sample being clear when manually inspected)”. Moreover, in data set [1], the “Solubility, Condition 5” value was “+ (“+” denotes solubility at the given condition, as determined by UV absorbance being less than 0.1 AU at 340 nm and the sample being clear when manually inspected)”. For the same compound, the IC50 in data set [2] (setting [3]) was less than 0.1 µM.
`CC[C@H](C)[C@@H]1NC(=O)[C@@H](NC(=O)[C@H](Cc2ccccc2)NC(=O)[C@H](CCC(=O)O)NC(=O)[C@H](CO)NC(C)=O)CSSC[C@@H](C(=O)N(C)CC(=O)N[C@@H](CCC(=O)O)C(=O)N[C@@H](C)C(N)=O)NC(=O)[C@H](CCCNC(=N)N)NC(=O)[C@H](Cc2c[nH]cn2)NC(=O)[C@H](CCC(=O)O)NC(=O)CN(C)C(=O)[C@H](Cc2c[nH]c3ccccc23)NC(=O)[C@H](CC(=O)O)NC(=O)[C@H](CCC(N)=O)NC(=O)[C@H](Cc2cn(C)c3ccccc23)NC1=O` [Compound 76, Ac-SEFC(1)I[1-Me-Trp]QDW[Sar]EHRC(1)[Sar]EA-NH2] (Ac-SEFCI[Trp(1-Me)]QDW[Sar]EHRC[Sar]EA-NH2; disulfide 4-14): in data set [1], the “Solubility, Condition 1” value is given as “− (“−” denotes lack of solubility at the given condition, as UV absorbance at 340 nm exceeds 0.1 AU and/or it is visibly turbid or contains particles)”; the “Solubility, Condition 2” value is recorded as “− (“−” denotes lack of solubility at the given condition, as UV absorbance at 340 nm exceeds 0.1 AU and/or it is visibly turbid or contains particles)”; the “Solubility, Condition 3” value is “+ (“+” denotes solubility at the given condition, as determined by UV absorbance being less than 0.1 AU at 340 nm and the sample being clear when manually inspected)”; the “Solubility, Condition 4” value is “+ (“+” denotes solubility at the given condition, as determined by UV absorbance being less than 0.1 AU at 340 nm and the sample being clear when manually inspected)”. For the same compound, the “Solubility, Condition 5” value in data set [1] was “+ (“+” denotes solubility at the given condition, as determined by UV absorbance being less than 0.1 AU at 340 nm and the sample being clear when manually inspected)”. Further, the IC50 in data set [2] (setting [3]) is less than 0.1 µM.
In the case of `CC[C@H](C)[C@@H]1NC(=O)[C@@H](NC(=O)[C@H](Cc2ccccc2)NC(=O)[C@H](CCC(=O)O)NC(=O)[C@H](CO)NC(C)=O)CSSC[C@@H](C(=O)N[C@H](C(=O)N[C@@H](CCC(=O)O)C(=O)N[C@@H](C)C(N)=O)[C@@H](C)O)NC(=O)[C@H](CCCNC(=N)N)NC(=O)[C@H](Cc2c[nH]cn2)NC(=O)[C@H](CCC(=O)O)NC(=O)CN(C)C(=O)[C@H](Cc2c[nH]c3ccccc23)NC(=O)[C@H](CC(=O)O)NC(=O)[C@H](CCC(N)=O)NC(=O)[C@H](Cc2cn(C)c3ccccc23)NC1=O` [Compound 77, Ac-SEFC(1)I[1-Me-Trp]QDW[Sar]EHRC(1)TEA-NH2] (Ac-SEFCI[Trp(1-Me)]QDW[Sar]EHRCTEA-NH2; disulfide 4-14), in data set [1], the “Solubility, Condition 1” value was “− (“−” denotes lack of solubility at the given condition, as UV absorbance at 340 nm exceeds 0.1 AU and/or it is visibly turbid or contains particles)”; the “Solubility, Condition 2” value is listed as “− (“−” denotes lack of solubility at the given condition, as UV absorbance at 340 nm exceeds 0.1 AU and/or it is visibly turbid or contains particles)”; the “Solubility, Condition 3” value is “+ (“+” denotes solubility at the given condition, as determined by UV absorbance being less than 0.1 AU at 340 nm and the sample being clear when manually inspected)”; the “Solubility, Condition 4” value was “+ (“+” denotes solubility at the given condition, as determined by UV absorbance being less than 0.1 AU at 340 nm and the sample being clear when manually inspected)”. In addition, in data set [1], the “Solubility, Condition 5” value is “+ (“+” denotes solubility at the given condition, as determined by UV absorbance being less than 0.1 AU at 340 nm and the sample being clear when manually inspected)”. In data set [2] (setting [3]), the IC50 was less than 0.1 µM.
With `CC[C@H](C)[C@H](NC(C)=O)C(=O)N[C@H]1CSSC[C@@H](C(=O)N[C@@H](CCC(=O)O)C(=O)NCC(=O)N[C@@H](CCC(=O)O)C(N)=O)NC(=O)[C@H](CCCNC(=N)N)NC(=O)[C@H](Cc2c[nH]cn2)NC(=O)[C@H](CCC(=O)O)NC(=O)CNC(=O)[C@H](Cc2c[nH]c3ccccc23)NC(=O)[C@H](CC(=O)O)NC(=O)[C@H](CCC(N)=O)NC(=O)[C@H](Cc2c[nH]c3ccccc23)NC(=O)[C@H]([C@@H](C)CC)NC1=O` [Compound 27] (Ac-ICIWQDWGEHRCEGE-NH2; disulfide 2-12), in data set [1], the “Solubility, Condition 1” value is recorded as “− (“−” denotes lack of solubility at the given condition, as UV absorbance at 340 nm exceeds 0.1 AU and/or it is visibly turbid or contains particles)”; the “Solubility, Condition 2” value is on record as “− (“−” denotes lack of solubility at the given condition, as UV absorbance at 340 nm exceeds 0.1 AU and/or it is visibly turbid or contains particles)”; the “Solubility, Condition 3” value is given as “− (“−” denotes lack of solubility at the given condition, as UV absorbance at 340 nm exceeds 0.1 AU and/or it is visibly turbid or contains particles)”; the “Solubility, Condition 4” value was “+ (“+” denotes solubility at the given condition, as determined by UV absorbance being less than 0.1 AU at 340 nm and the sample being clear when manually inspected)”. For the same compound, in data set [1], the “Solubility, Condition 5” value is “+ (“+” denotes solubility at the given condition, as determined by UV absorbance being less than 0.1 AU at 340 nm and the sample being clear when manually inspected)”. Moreover, the IC50 in data set [2] (setting [3]) is less than 0.1 µM.
Take `CC[C@H](C)[C@H](NC(C)=O)C(=O)N[C@H]1CSSC[C@@H](C(=O)N[C@H](C(=O)NCC(=O)N[C@@H](C)C(=O)N[C@@H](CCC(=O)O)C(=O)N[C@@H](CO)C(N)=O)[C@@H](C)O)NC(=O)[C@H](CCCNC(=N)N)NC(=O)[C@H](Cc2c[nH]cn2)NC(=O)[C@H](CCC(=O)O)NC(=O)CNC(=O)[C@H](Cc2c[nH]c3ccccc23)NC(=O)[C@H](CC(=O)O)NC(=O)[C@H](CCC(N)=O)NC(=O)[C@H](Cc2ccc3ccccc3c2)NC(=O)[C@H]([C@@H](C)CC)NC1=O` [Compound 52] (Ac-ICI[2Nal]QDWGEHRCTGAES-NH2; disulfide 2-12): in data set [1], the “Solubility, Condition 1” value is listed as “− (“−” denotes lack of solubility at the given condition, as UV absorbance at 340 nm exceeds 0.1 AU and/or it is visibly turbid or contains particles)”; the “Solubility, Condition 2” value is “− (“−” denotes lack of solubility at the given condition, as UV absorbance at 340 nm exceeds 0.1 AU and/or it is visibly turbid or contains particles)”; the “Solubility, Condition 3” value was “+ (“+” denotes solubility at the given condition, as determined by UV absorbance being less than 0.1 AU at 340 nm and the sample being clear when manually inspected)”; the “Solubility, Condition 4” value is “+ (“+” denotes solubility at the given condition, as determined by UV absorbance being less than 0.1 AU at 340 nm and the sample being clear when manually inspected)”. The “Solubility, Condition 5” value in data set [1] is “+ (“+” denotes solubility at the given condition, as determined by UV absorbance being less than 0.1 AU at 340 nm and the sample being clear when manually inspected)”. In addition, the IC50 in data set [2] (setting [3]) was less than 0.1 µM.
With `CC[C@H](C)[C@H](NC(=O)[C@H](C)NC(=O)[C@H](CO)NC(=O)CNC(=O)[C@H](CCC(=O)O)NC(C)=O)C(=O)N[C@H]1CSSC[C@@H](C(=O)N(C)CC(=O)N[C@@H](CCC(=O)O)C(N)=O)NC(=O)[C@H](CCCNC(=N)N)NC(=O)[C@H](Cc2c[nH]cn2)NC(=O)[C@H](CCC(=O)O)NC(=O)CNC(=O)[C@H](Cc2c[nH]c3ccccc23)NC(=O)[C@H](CC(=O)O)NC(=O)[C@H](CCC(N)=O)NC(=O)[C@H](Cc2c[nH]c3ccccc23)NC(=O)[C@H]([C@@H](C)CC)NC1=O` [Compound 28] (Ac-EGSAICIWQDWGEHRC[Sar]E-NH2; disulfide 6-16), in data set [1], the “Solubility, Condition 1” value is “+ (“+” denotes solubility at the given condition, as determined by UV absorbance being less than 0.1 AU at 340 nm and the sample being clear when manually inspected)”; the “Solubility, Condition 2” value was “+ (“+” denotes solubility at the given condition, as determined by UV absorbance being less than 0.1 AU at 340 nm and the sample being clear when manually inspected)”; the “Solubility, Condition 3” value is “+ (“+” denotes solubility at the given condition, as determined by UV absorbance being less than 0.1 AU at 340 nm and the sample being clear when manually inspected)”; the “Solubility, Condition 4” value was “+ (“+” denotes solubility at the given condition, as determined by UV absorbance being less than 0.1 AU at 340 nm and the sample being clear when manually inspected)”. For the same compound, in data set [1], the “Solubility, Condition 5” value is “+ (“+” denotes solubility at the given condition, as determined by UV absorbance being less than 0.1 AU at 340 nm and the sample being clear when manually inspected)”. Further, in data set [2] (setting [3]), the IC50 is less than 0.1 µM. The IC50 in data set [2] (Table 4, valine 3 vs isoleucine 3 pairs, read-out: CP hemolysis IC50) stood at 0.088 µM.
